From patent US11203615B2, “Cancer treatment drug” (NATIONAL UNIVERSITY CORPORATION HOKKAIDO UNIVERSITY, priority 2017, dated 2021)
Residues, ends and D or L forms follow the SMILES beside them.

Key:
[1] = system: Human pancreatic cancer cells (PK-9); experiment: Tumor growth in nude mice with PK-9 cells transplanted on the back, intraperitoneal administration; assay type: in vivo, nude mouse; details: i.p. five times per week, day 7 to day 35 after transplantation
Procedure: Human pancreatic cancer cells (PK-9) were transplanted to the back of each nude mouse (Balb/cA Jcl nu/nu mice, female, distributor: CLEA Japan, Inc.). The peptide of the present invention RRRRRRRRRRR-GGG-MGLKMSCLKGFQMCV (SEQ ID NO: 4), the peptide RRRRRRRRRRR-GGG-MGLKMAAAKGFQAAA (SEQ ID NO: 8), or PBS was intraperitoneally administered five times per week from day 7 to day 35 after the transplantation. During this period, body weight and tumor volume of the animals were measured, and fluorescence images were taken. On day 35 after the transplantation, tumor was resected, and the weight was measured. […] The mean tumor weight was approximately 50 mg for the group with administration of the peptide of the present invention (represented as DB in FIG. 6), and, by contrast, approximately 100 mg to 110 mg for the other two groups.

[2] = target: T1, C16orf74 protein dimer (Homo sapiens, UniProt Q96GX8); experiment: Inhibition of dimer formation of C16orf74 protein in human pancreatic cancer cells and NHDFs (FIG. 3); assay type: cell-based; set-up: PK-1 and PK-9 (C16orf14 high expression) are compared to Panc1 and Miapaca2 (low expression); endogenous in cells; host or cells: PK-1, PK-9, Panc-1, Miapaca-2, NHDF
T1 sequence (Q96GX8 whole entry): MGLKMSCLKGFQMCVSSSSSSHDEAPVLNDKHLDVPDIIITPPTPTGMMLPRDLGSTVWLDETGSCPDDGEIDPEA
Procedure: The same experiment as the above (3) was conducted by using the peptide RRRRRRRRRRR-GGG-MGLKMSCLKGFQMCV (SEQ ID NO: 4) (represented as 11R-C16orf74-DB in FIG. 3(a)), the peptide RRRRRRRRRRR-GGG-MGLKMSALKGFQMAV (SEQ ID NO: 7) (represented as 11R-C16orf74 C7A-C14A in FIG. 3(b)), and the peptide RRRRRRRRRRR-GGG-MGLKMAAAKGFQAAA (SEQ ID NO: 8) (represented as 11R-C16orf74-6-8A-13-15A in FIG. 3(c)) with different concentrations to examine inhibition of the dimer formation of C16orf74 protein. For the cells, four types of human pancreatic cancer cells (PK-1, PK-9, Panc-1, Miapaca-2) and normal human dermal fibroblasts (NHDFs) were used. The results are shown in FIGS. 3(a), 3(b), and 3(c), which are 24 hour WST assays in which PK-1 and PK-9 (C16orf14 high expression) are compared to Panc1 and Miapaca2 (low expression). A p-value of p<0.05 was obtained at 30 μM.

[3] = target: T1, C16orf74 protein dimer; experiment: Inhibition of dimer formation of C16orf74 protein, pull-down assay in cotransfected HEK293T cells; assay type: cell-based; details: 40 μM peptide, 24 hours
Procedure: Pull-down assay was used for this verification. HEK293T cells were cotransfected with a vector to express a protein of Flag-tagged C16orf74 protein (pCAGGS-C16orf74-3×Flag) and a vector to express a protein of HA-tagged C16orf74 protein (pCAGGS-C16orf74-HA), and 24 hours thereafter a cell lysate was obtained and immunoprecipitation was carried out with agarose beads with an HA antibody attached thereto. The resulting immunoprecipitate was subjected to electrophoresis, and blotted with a Flag antibody. Experiment was conducted in three parallel systems. In the figure, MOCK represents a case that empty vectors of pCAGGS were provided with a Flag tag and an HA tag and HEK293T cells were cotransfected therewith. A band of the Flag-tagged C16orf74 protein was found at an intended level ([…]).
HEK293T cells were transfected with pCAGGS-C16orf74-3×Flag and pCAGGS-C16orf74-HA, and cultured in the presence and absence of 40 μM of the peptide RRRRRRRRR-GGG-MGLKMSCLKGFQMCV (SEQ ID NO: 6) for 24 hours, and thereafter a band of the dimer was detected in the same manner as descried in (1).

[4] = system: PK-9 cells expressing luciferase (PK-9-td Tomato-luc2); experiment: Tumor survival and nodulation in nude mice with peritoneally disseminated PK-9-td Tomato-luc2 cells; assay type: in vivo; details: 1 mg/kg/mouse five times per week, day 0 to day 35; imaging days 3-35
Procedure: PK-9 cells expressing luciferase (PK-9-td Tomato-luc2) were intraperitoneally injected into each nude mouse (Balb/cA Jcl nu/nu mice, female, distributor: CLEA Japan, Inc.). During a period from the day of the peritoneal dissemination to day 35, the peptide of the present invention RRRRRRRRRRR-GGG-MGLKMSCLKGFQMCV (SEQ ID NO: 4), the peptide RRRRRRRRRRR-GGG-MGLKMAAAKGFQAAA (SEQ ID NO: 8), or PBS was injected into the subcutaneous tissue in the vicinity of tumor five times per week (1 mg/kg/mouse). On days 3, 7, 14, 21, 28, and 35 after the peritoneal dissemination, tumor was imaged. The number of nodules was counted at the end of the peptide administration period.

[5] = system: PK-9 cells; experiment: Tumor growth in nude mice with subcutaneously injected PK-9 cells, peritumoral subcutaneous injection; assay type: in vivo; details: 10 mg/kg/mouse s.c. near tumor five times per week, 3 weeks
Procedure: PK-9 cells were injected into the back of each nude mouse (Balb/cA Jcl nu/nu mice, female, distributor: CLEA Japan, Inc.). Two weeks after the injection, the peptide of the present invention RRRRRRRRRRR-GGG-MGLKMSCLKGFQMCV (SEQ ID NO: 4), the peptide RRRRRRRRRRR-GGG-MGLKMAAAKGFQAAA (SEQ ID NO: 8), or PBS was injected into the subcutaneous tissue in the vicinity of tumor five times per week (10 mg/kg/mouse). The administration period was 3 weeks. At the end of the administration period, tumor was resected and the tumor weight was measured. […] The mean tumor weight of the group with administration of the peptide of the present invention (SEQ ID NO: 4) was approximately 250 mg (group 11R-DB in FIG. 8).

Compound: CSCC[C@H](NC(=O)CNC(=O)CNC(=O)CNC(=O)[C@H](CCCNC(=N)N)NC(=O)[C@H](CCCNC(=N)N)NC(=O)[C@H](CCCNC(=N)N)NC(=O)[C@H](CCCNC(=N)N)NC(=O)[C@H](CCCNC(=N)N)NC(=O)[C@H](CCCNC(=N)N)NC(=O)[C@H](CCCNC(=N)N)NC(=O)[C@H](CCCNC(=N)N)NC(=O)[C@H](CCCNC(=N)N)NC(=O)[C@H](CCCNC(=N)N)NC(=O)[C@@H](N)CCCNC(=N)N)C(=O)NCC(=O)N[C@@H](CC(C)C)C(=O)N[C@@H](CCCCN)C(=O)N[C@@H](CCSC)C(=O)N[C@@H](CO)C(=O)N[C@@H](CS)C(=O)N[C@@H](CC(C)C)C(=O)N[C@@H](CCCCN)C(=O)NCC(=O)N[C@@H](Cc1ccccc1)C(=O)N[C@@H](CCC(N)=O)C(=O)N[C@@H](CCSC)C(=O)N[C@@H](CS)C(=O)N[C@H](C(=O)O)C(C)C [SEQ ID NO: 4, RRRRRRRRRRR-GGG-MGLKMSCLKGFQMCV] (H-RRRRRRRRRRRGGGMGLKMSCLKGFQMCV-OH)
- body weight of the animals [1]: exhibited a higher increasing tendency than the other administration groups
- inhibition at 40 µM ([2]; MIA PaCa-2, Miapaca2 cells): ≥ 60%
- inhibition at 40 µM ([2]; PANC-1, Panc1 cells): ≥ 60%
- inhibition at 30 µM ([2]; PK9, PK-9 cells): ~60%
- inhibition at 30 µM ([2]; PK-1 cells): ~60%

Compound: RRRRRRRRR-GGG-MGLKMSCLKGFQMCV (RRRRRRRRRGGGMGLKMSCLKGFQMCV; fusion peptide) [SEQ ID NO: 6, C16orf74 N-terminal 15 amino acids bonded to 9-arginine signal via a GGG tag]
- inhibition of dimer formation of C16orf74 protein (band of the dimer) [3]: the dimer formation was inhibited

Compound: RRRRRRRRRRR-GGG-MGLKMAAAKGFQAAA (RRRRRRRRRRRGGGMGLKMAAAKGFQAAA; fusion peptide) [SEQ ID NO: 8, control peptide, cysteines 7 and 14 and their neighbouring residues converted into alanine]
- survival of tumor cells (tumor imaging) [4]: The survival of tumor cells was not suppressed
- course of tumor volume [5]: the tumor volume increased
- change over time in tumor fluorescence intensity [1]: exhibited increase in fluorescence intensity
- inhibition of the dimer formation ([2]; any of the cells (PK-1, PK-9, Panc-1, Miapaca-2, NHDFs)): no inhibition of the dimer formation was found

Compound: RRRRRRRRRRR-GGG-MGLKMSALKGFQMAV (RRRRRRRRRRRGGGMGLKMSALKGFQMAV; fusion peptide) [SEQ ID NO: 7, control peptide, cysteine residues at 7th and 14th positions converted into alanine]
- inhibition of the dimer formation ([2]; PK-1 and PK-9 cells): the inhibition was weaker than in using 11R-C16orf74-DB
- inhibition of the dimer formation ([2]; Panc1, Miapaca2 and NHDFs): Almost no inhibition of the dimer formation was found
